Values quoted from earlier work, collected in patent US7713922B2, “Perfume compositions” (Quest International Services B.V., priority 2005, dated 2010).
Where a name gives a salt, the structure may show the parent alone.

Details: at 25° C.

| Compound | VP Class (vapour pressure class) |
| --- | --- |
| COC(Cc1ccccc1)OC | III (vp at least 100 micron Hg at 25° C.) |
| 2,4-DIMETHYL-6-PHENYLDIHYDROPYRAN | I (vp greater than 3 micron Hg but less than 30 micron Hg at 25° C.) |
| COCCc1ccccc1 [2-PHENYLETHYL METHYL ETHER] | III (vp at least 100 micron Hg at 25° C.) |
| OCCCc1ccccc1 [3-PHENYLPROPYL ALCOHOL] | I (vp greater than 3 micron Hg but less than 30 micron Hg at 25° C.) |
| CC(=O)c1ccccc1 [ACETOPHENONE] | III (vp at least 100 micron Hg at 25° C.) |
| C=CCOC(=O)COc1ccccc1 [ALLYL PHENOXYACETATE] | I (vp greater than 3 micron Hg but less than 30 micron Hg at 25° C.) |
| CCCCCOC(=O)c1ccccc1O [AMYL SALICYLATE] | I (vp greater than 3 micron Hg but less than 30 micron Hg at 25° C.) |
| CC=Cc1ccc(OC)cc1 [ANETHOLE] | II (vp greater than 30 micron Hg but less than 100 micron at 25° C.) |
| COc1ccc(C=O)cc1 [ANISIC ALDEHYDE] | II (vp greater than 30 micron Hg but less than 100 micron at 25° C.) |
| CC(C)CCOCCc1ccccc1 [ANTHER, 2-PHENYLETHYL ISOAMYL ETHER] | II (vp greater than 30 micron Hg but less than 100 micron at 25° C.) |
| CC(C=O)Cc1ccc2c(c1)OCO2 (stereo not shown) [AQUANAL] | I (vp greater than 3 micron Hg but less than 30 micron Hg at 25° C.) |
| CC(=O)OCc1ccccc1 [BENZYL ACETATE] | III (vp at least 100 micron Hg at 25° C.) |
| CC(=O)CCc1ccccc1 [BENZYL ACETONE] | II (vp greater than 30 micron Hg but less than 100 micron at 25° C.) |
| C/C=C(\C)C(=O)OCc1ccccc1 [BENZYL TIGLATE, PHENYLMETHYL (2E)-2-METHYLBUT-2-ENOATE] | I (vp greater than 3 micron Hg but less than 30 micron Hg at 25° C.) |
| CC(C)(C)c1ccc(CCC=O)cc1 [BOURGEONAL, 3-(4-TERT.BUTYLPHENYL)PROPANAL] | I (vp greater than 3 micron Hg but less than 30 micron Hg at 25° C.) |
| COc1ccc(CC(C)C=O)cc1 (stereo not shown) [CANTHOXAL, 2-METHYL-3-(4-METHOXYPHENYL)PROPANAL] | I (vp greater than 3 micron Hg but less than 30 micron Hg at 25° C.) |
| OC/C=C/c1ccccc1 [CINNAMIC ALCOHOL] | I (vp greater than 3 micron Hg but less than 30 micron Hg at 25° C.) |
| CC(C=O)Cc1ccc(C(C)C)cc1 (stereo not shown) [CYCLAMEN ALDEHYDE, 2-METHYL-3-(4′-ISO-PROPYLPHENYL)PROPANAL] | I (vp greater than 3 micron Hg but less than 30 micron Hg at 25° C.) |
| c1ccc(Oc2ccccc2)cc1 [DIPHENYL OXIDE] | I (vp greater than 3 micron Hg but less than 30 micron Hg at 25° C.) |
| CCOC(C)OCCc1ccccc1 (stereo not shown) [EFETAAL, (2-{[1-(ETHYLOXY)ETHYL]OXY}ETHYL)BENZENE] | II (vp greater than 30 micron Hg but less than 100 micron at 25° C.) |
| CCOC(=O)c1ccccc1 [ETHYL BENZOATE] | III (vp at least 100 micron Hg at 25° C.) |
| C=CCc1ccc(O)c(OC)c1 [EUGENOL] | I (vp greater than 3 micron Hg but less than 30 micron Hg at 25° C.) |
| CCc1ccc(CC(C)(C)C=O)cc1 [FLORALOZONE, 2,2-DIMETHYL-3-(PARA-ETHYL PHENYL)PROPANAL] | I (vp greater than 3 micron Hg but less than 30 micron Hg at 25° C.) |

| Compound | VP Class (vapour pressure class) |
| --- | --- |
| CC(C)c1cccc(C(C)CC=O)c1 (stereo not shown) [FLORHYDRAL] | I (vp greater than 3 micron Hg but less than 30 micron Hg at 25° C.) |
| CC(C)CCOC(=O)c1ccccc1O [ISOAMYL SALICYLATE] | I (vp greater than 3 micron Hg but less than 30 micron Hg at 25° C.) |
| CC(C)COC(=O)c1ccccc1O [ISOBUTYL SALICYLATE] | I (vp greater than 3 micron Hg but less than 30 micron Hg at 25° C.) |
| CC=Cc1ccc(O)c(OC)c1 [ISOEUGENOL] | II (vp greater than 30 micron Hg but less than 100 micron at 25° C.) |
| CC(C)(C)c1ccc(CC#N)cc1 [MARENIL, 4-TERT-BUTYLPHENYLACETONITRILE] | I (vp greater than 3 micron Hg but less than 30 micron Hg at 25° C.) |
| CC(CC=O)CCc1ccccc1 (stereo not shown) [MEFRANAL, 3-METHYL-5-PHENYLPENTANAL] | I (vp greater than 3 micron Hg but less than 30 micron Hg at 25° C.) |
| CC(CCO)CCc1ccccc1 (stereo not shown) [MEFROSOL, 3-METHYL-5-PHENYLPENTANOL] | I (vp greater than 3 micron Hg but less than 30 micron Hg at 25° C.) |
| COC(=O)c1ccccc1N [METHYL ANTHRANILATE] | I (vp greater than 3 micron Hg but less than 30 micron Hg at 25° C.) |
| COC(=O)c1ccccc1 [METHYL BENZOATE] | III (vp at least 100 micron Hg at 25° C.) |
| C=CCc1ccc(OC)cc1 [METHYL CHAVICOL, 4-METHOXY-1-(2-PROPENYL)-BENZENE] | III (vp at least 100 micron Hg at 25° C.) |
| COC(=O)C=Cc1ccccc1 [METHYL CINNAMATE] | I (vp greater than 3 micron Hg but less than 30 micron Hg at 25° C.) |
| C=CCc1ccc(OC)c(OC)c1 [METHYL EUGENOL] | I (vp greater than 3 micron Hg but less than 30 micron Hg at 25° C.) |
| COC(=O)Cc1ccccc1 [METHYL PHENYLACETATE] | III (vp at least 100 micron Hg at 25° C.) |
| COC(=O)c1ccccc1O [METHYL SALICYLATE] | III (vp at least 100 micron Hg at 25° C.) |
| CC(C)OCCc1ccccc1 [PETIOLE, 2-PHENYLETHYL ISOPROPYL ETHER] | III (vp at least 100 micron Hg at 25° C.) |
| CC(C)C(=O)OCCOc1ccccc1 [PHENOXYETHYL ISOBUTYRATE] | I (vp greater than 3 micron Hg but less than 30 micron Hg at 25° C.) |
| CC(=O)OCCc1ccccc1 [PHENYLETHYL ACETATE] | II (vp greater than 30 micron Hg but less than 100 micron at 25° C.) |
| O=COCCc1ccccc1 [PHENYLETHYL FORMATE] | II (vp greater than 30 micron Hg but less than 100 micron at 25° C.) |
| CC1CC(C)(c2ccccc2)CO1 (stereo not shown) [RHUBAFURAN] | II (vp greater than 30 micron Hg but less than 100 micron at 25° C.) |
| CC(=O)OC(C)c1ccccc1 (stereo not shown) [STYRALLYL ACETATE] | III (vp at least 100 micron Hg at 25° C.) |
| COc1ccc(C)cc1 [para-CRESYL METHYL ETHER] | III (vp at least 100 micron Hg at 25° C.) |
| COc1ccc(C(C)=O)cc1 [para-METHOXYACETOPHENONE] | II (vp greater than 30 micron Hg but less than 100 micron at 25° C.) |
| CC(=O)c1ccc(C)cc1 [para-METHYLACETOPHENONE] | III (vp at least 100 micron Hg at 25° C.) |
